Experimental findings from patent US20130072383A1, “METHOD FOR ANTI-SPROUTING AND POSSIBLY FUNGICIDAL TREATMENT OF BULBS AND/OR TUBERS USING CLOVE OIL AND MINT OIL” (priority 2010, published 2013) are described below.

This assay relates to Bintje, Nicola and Charlotte potatoes. The experiment in a line: Sprout-inhibiting treatment of stored potatoes over 6 months, sprout weights (Example 1). The conditions noted are these: used alone. The format is in vivo. The procedure:
The sprout-inhibiting treatments were carried out over a 6-month period.
The mint oil used contained about 70% L-carvone and the clove oil used contained about 90% eugenol.
The tested potatoes were Bintje, Nicola and Charlotte varieties.
An anti-sprouting composition A consisting of a mixture of clove oil (supplied by Charabot (Grasse)/ mint oil (supplied by Charabot (Grasse) at 2:1 v/v was prepared. The densities of mint and clove are respectively 0.94 and 1.04. This composition was applied to the potatoes using Electrofog Xeda 3000 equipment at an output temperature of 210° C., • at an initial dose of 90 grams of composition per tonne of potatoes, • at subsequent doses of 30 grams of composition per tonne of potatoes every three weeks.
For comparison, some potatoes were treated: • B: either with mint oil alone
at an initial dose of 90 grams of mint oil per tonne of potatoes,
at subsequent doses of 30 grams of mint oil per tonne of potatoes every three weeks; • C: or with clove oil alone
at an initial dose of 90 grams of clove oil per tonne of potatoes,
at subsequent doses of 30 grams of clove oil per tonne of potatoes every three weeks; • D: or with CIPC (Xedamate Aerosol 88 containing 20% CIPC) by thermal fogging:
at an initial dose of 60 grams of Xedamate Aerosol 88 per tonne of potatoes, […]

Regarding L-carvone, the “Anti-sprouting activity relative to reference product CIPC” value is on record as “comparable with the reference product (CIPC)”.
